# In BindingDB's records for PubMed 35598527 (Universidade Federal De Minas Gerais, 2022):
# Test: Antagonist activity at pig cerebral cortex CCK2 […] by Packbard-Cobra counter analysis
row,IC50 [nM],Compound
1,85,CC(C)CNC1=C(Cl)C(=O)OC1OCc1ccccc1 (configuration not stated)
2,80,C#CCOC1OC(=O)C(Cl)=C1N(CC(C)C)C1CCCCC1 (configuration not stated)
